The record followed here is patent US7071222B2, “Preparation containing a combination of 5-methylisoxazole-4-carboxylic acid-(4-trifluoromethyl)-anilide and N-(4-trifluoromethylphenyl)2-cyano-3-hydroxycrotonic acid amide” (Sanofi-Aventis Deuschland GmbH, priority 1996, dated 2006).

Test [1] in a line: Oral administration of compound 1 or compound 2 on its own (background statement). The format is in vivo. The settings on record: 5 mg or 10 mg per kg, each compound on its own.
Test [2] relates to Adjuvant-induced arthritis. The test is described as follows: Adjuvant-induced arthritis, modification in accordance with Perper. The class given is in vivo, rats of a Lewis strain. The settings on record: Compound 1 10 mg/kg of rat, Compound 2 0 mg/kg; oral once daily day 1-12; determined day 18; vs control group. As to the method:
Adjuvant-induced arthritis, modification in accordance with […] (Proc. Soc. exp. Biol. Med. 137, 506 (1971)) Male rats of a Lewis strain (Moellegard, Denmark) having a body weight of from 160 to 210 g are used as the experimental animals. On the 1st day, the animals are injected subcutaneously, into the tail root, with complete Freund's adjuvant containing a suspension of Mycobacterium butyricum in heavy paraffin oil (Difco; […] in paraffin oil; Merck). Compounds 1 and 2 are suspended in carboxymethyl cellulose (1% in water) and this suspension is administered orally. The compounds are administered once daily from the 1st to the 12th day of the experiment. The paw volume and the arthritis index are determined on the 18th day. The severity of the disorder is determined by measuring the volumes of both hind paws. The measurement is carried out by the water displacement method, using a 2060 plethysmometer (Rhema-Labortechnik, Hofheim, Germany). In addition, the arthritis index is determined on the 18th day after injection. [table] Animals forming a control group are only given the solvent (1% carboxymethyl cellulose in water). 6 animals are used for each dose and in the control group. A reduction in the increase in paw volume and a decrease in the arthritis index, as compared with the untreated control group, are used as the criteria for an effect having been achieved.

Regarding `C/C(O)=C(\C#N)C(=O)Nc1ccc(C(F)(F)F)cc1` [Compound 2, N-(4-trifluoromethylphenyl)-2-cyano-3-hydroxycrotonamide], the “effect of oral administration, compound on its own” value in test [1] was “does not have any significant effect”.

As to `Cc1oncc1C(=O)Nc1ccc(C(F)(F)F)cc1` [Compound 1, 5-methyl-4′-trifluoromethyl-4-isoxazolecarboxanilide], the “effect of oral administration, compound on its own” value in test [1] is on record as “does not have any significant effect”. Moreover, in test [2], the “Decrease in arthritis index” value amounted to 58% and the “Decrease in paw volume” value was 74%.
